Experimental data published in patent US7276511B2, “Benzylamine derivative” (Zeria Pharmaceutical Co., Ltd., priority 2003, dated 2007).
Structures can show the parent of a compound that is named as a salt.

target: T1, Cloned Neurokinin Receptor Subtype 2 Human (Homo sapiens, UniProt P21452); assay: NK-2 receptor-binding experiment ([3H]-SR48968, CHO cell membranes); settings: Table 3; inhibition of [3H]-SR48968 (0.85 nM) binding, pseudo-Hill analysis
T1 construct: purchased Biosignal Packard; host or cells: CHO cells
T1 sequence (P21452 1-398): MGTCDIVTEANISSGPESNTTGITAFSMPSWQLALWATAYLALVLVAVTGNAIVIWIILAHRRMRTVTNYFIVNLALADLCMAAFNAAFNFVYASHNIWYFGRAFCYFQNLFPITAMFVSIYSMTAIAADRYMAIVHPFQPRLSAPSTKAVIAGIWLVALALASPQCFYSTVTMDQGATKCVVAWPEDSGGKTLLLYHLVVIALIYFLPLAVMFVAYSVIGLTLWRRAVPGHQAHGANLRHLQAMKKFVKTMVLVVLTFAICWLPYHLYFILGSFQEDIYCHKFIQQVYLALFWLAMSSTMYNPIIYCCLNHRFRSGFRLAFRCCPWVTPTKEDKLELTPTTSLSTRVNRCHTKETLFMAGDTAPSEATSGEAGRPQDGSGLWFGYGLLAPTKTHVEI
Method: 2. NK-2 Receptor-binding Experiment
Cloned Neurokinin Receptor Subtype 2 Human (CHO cells, Biosignal Packard), [^3H]-SR48968 (Amersham, final concentration 0.85 nM), and a test compound were mixed with 20 mM HEPES buffer, and the mixture was incubated for 50 minutes at 27° C. After completion of incubation, membrane components were collected by means of an automatic filtration apparatus (Brandel) onto a GF/C glass fiber filter (Whatman).
Before use, in order to prevent non-specific binding, the glass fiber filter had been pre-treated with 0.1% polyethylene imine solution for about 4 hours.
The filter employed to collect the membrane components was transferred to a plastic vial containing UltimaGold MV (5 mL), and measured by means of a liquid scintillation counter (Packard, 2000CA) in terms of the radioactivity.
Percent radioactive ligand-receptor binding inhibition of each test compound was calculated by use of the following equation, and IC50 (nM) was determined through pseudo-Hill analysis.
Percent inhibition (%)=[1−(C−A)/(B−A)]×100
A: Radioactivity attributed to non-specific binding
B: Radioactivity without test compound
C: Radioactivity with test compound

Row | SMILES | IC50
1 | CCN(C(=O)C(=O)N(C)[C@](CCN1CCC2(CC1)c1ccccc1C[S@+]2[O-])(CN(C)C(=O)C(C)C)c1ccc(Cl)c(Cl)c1)c1ccccc1 [Compound No. 39, N^1-{1-(N-methylisobutylamide)-2-(S)-(3,4-dichlorophenyl)-4-[spiro(benzo(c)thiophene-(2S)-oxido-1(3H),4′-piperidin)-1′-yl]butan-2-yl}-N^1-methyl-N^2-ethyl-N^2-phenyloxalamide hydrochloride] | 1 nM
2 | CN(CC(CCN1CCC2(CC1)c1ccccc1C[S+]2[O-])(c1ccc(Cl)c(Cl)c1)N(C)C(=O)C(=O)Nc1ccccc1Cl)C(=O)CC(F)(F)F [Compound No. 9, N-(2-Chloro-phenyl)-N′-{1-(3,4-dichloro-phenyl)-1-{[methyl-(3,3,3-trifluoro-propionyl)-amino]-methyl}-3-{spiro[benzo(c)thiophene-1(3H),4′-piperidine]-(2S)-oxido}-1′-yl-propyl}-N′-methyl-oxalamide hydrochloride] | 7.2 nM
3 | CCC(=O)N(C)C[C@](CCN1CCC2(CC1)c1ccccc1C[S@+]2[O-])(c1ccc(Cl)c(Cl)c1)N(C)C(=O)c1ccccc1 [Compound No. 34, N-{1-(N-methyl-propionamide)-2-(S)-(3,4-dichlorophenyl)-4-[spiro(benzo(c)thiophene-(2S)-oxido-1(3H),4′-piperidin)-1′-yl]butan-2-yl}-N-methylbenzamide hydrochloride] | 0.96 nM
4 | CN(C[C@](CCN1CCC2(CC1)NC(=O)Cc1ccccc12)(c1ccc(Cl)c(Cl)c1)N(C)C(=O)c1ccccc1)C(=O)CC(F)(F)F [Compound No. 22, N-{1-(3,3,3-trifluoro-N-methylpropanamido)-2-(S)-(3,4-dichlorophenyl)-4-[3-oxo-3,4-dihydro-2H-spiro(isoquinoline-1,4′-piperidin)-1′-yl]butan-2-yl}-N-methylbenzamide hydrochloride] | 0.95 nM
5 | CN(CC(CCN1CCC2(CC1)c1ccccc1C[S+]2[O-])(c1ccc(Cl)c(Cl)c1)N(C)C(=O)Cc1ccccc1)C(=O)CC(F)(F)F [Compound No. 14, N-[2-(3,4-Dichloro-phenyl)-2-(methyl-phenylacetyl-amino)-4-{spiro[benzo(c)thiophene-1(3H),4′-piperidine]-(2S)-oxido}-1′-yl-butyl]-3,3,3-trifluoro-N-methyl-propionamide hydrochloride] | 0.34 nM
6 | CN(CC(CCN1CCC2(CC1)c1ccccc1C[S@+]2[O-])(c1ccc(Cl)c(Cl)c1)N(C)C(=O)C(=O)N(C)c1ccccc1)C(=O)CC(F)(F)F (single isomer, unassigned) [Compound No. 10] | 4.1 nM
7 | CN(CC(CCN1CCC2(CC1)NC(=O)Cc1ccccc12)(c1ccc(Cl)c(Cl)c1)N(C)C(=O)NC(c1ccccc1)c1ccccc1)C(=O)C(F)(F)F (stereo not shown) [Compound No. 3, N-{2-(3-benzhydryl-1-methylureido)-2-(3,4-dihydrodichlorophenyl)-4-{spiro[isoquinoline-1(2H),4′-piperidine]-3(4H)-one}-1′-yl-butyl}-2,2,2-trifluoro-N-methyl-acetamide hydrochloride] | 1.7 nM
8 | CN(C[C@](CCN1CCC2(CC1)c1ccccc1C[S@+]2[O-])(c1ccc(Cl)c(Cl)c1)N(C)C(=O)c1ccc(C(F)(F)F)cc1)C(=O)CC(F)(F)F [Compound No. 31, N-{1-(3,3,3-trifluoro-N-methylpropanamido)-2-(S)-(3,4-dichlorophenyl)-4-[spiro(benzo(c)thiophene-(2S)-oxido-1(3H),4′-piperidin)-1′-yl]butan-2-yl}-N-methyl-4-trifluoromethylbenzamide hydrochloride] | 0.75 nM
9 | CCN(C(=O)C(=O)N(C)[C@](CCN1CCC2(CC1)NC(=O)Cc1ccccc12)(CN(C)C(=O)CC(F)(F)F)c1ccc(Cl)c(Cl)c1)c1ccccc1 [Compound No. 41, N^1-{1-(3,3,3-trifluoro-N-methylpropanamido)-2-(S)-(3,4-dichlorophenyl)-4-[3-oxo-3,4-dihydro-2H-spiro(isoquinoline-1,4′-piperidin)-1′-yl]butan-2-yl}-N^1-methyl-N^2-ethyl-N^2-phenyloxalamide hydrochloride] | 0.84 nM
10 | CN(C[C@](CCN1CCC2(CC1)c1ccccc1CS2(=O)=O)(c1ccc(Cl)c(Cl)c1)N(C)C(=O)Cc1ccccc1)C(=O)CC(F)(F)F [Compound No. 28, N-(1-(3,3,3-trifluoro-N-methylpropanamido)-2-(S)-(3,4-dichlorophenyl)-4-[spiro(benzo(c)thiophene-2,2-dioxido-1(3H),4′-piperidin)-1′-yl]butan-2-yl}-N-methyl-phenylacetamide hydrochloride] | 2.6 nM
11 | CCOC(=O)C(=O)N(C)C(CCN1CCC2(CC1)c1ccccc1C[C@@H]2O)(COCc1cc(OC)c(OC)c(OC)c1)c1ccc(Cl)c(Cl)c1 (mixture of isomers) [Compound No. 21, N-[1-(3,4-Dichloro-phenyl)-3-{spiro[((2S)-hydroxy)indan-1,4′-piperidine]}-1′-yl-1-(3,4,5-trimethoxy-benzyloxymethyl)-propyl]-N-methyl-oxamic acid ethyl ester hydrochloride] | 8.7 nM
12 | CCN(C(=O)C(=O)N(C)[C@](CCN1CCC2(CC1)NC(=O)Cc1ccccc12)(CN(C)C(=O)C(C)(C)C)c1ccc(Cl)c(Cl)c1)c1ccccc1 [Compound No. 38, N^1-{1-(N-methyl-trimethylacetamide)-2-(S)-(3,4-dichlorophenyl)-4-[3-oxo-3,4-dihydro-2H-spiro(isoquinoline-1,4′-piperidin)-1′-yl]butan-2-yl}-N^1-methyl-N^2-ethyl-N^2-phenyloxalamide hydrochloride] | 1.9 nM
13 | CC(=O)N(C)C[C@](CCN1CCC2(CC1)NC(=O)Cc1ccccc12)(c1ccc(Cl)c(Cl)c1)N(C)C(=O)c1ccccc1 [Compound No. 36, N-{1-(N-methyl-acetamide)-2-(S)-(3,4-dichlorophenyl)-4-[3-oxo-3,4-dihydro-2H-spiro(isoquinoline-1,4′-piperidin)-1′-yl]butan-2-yl}-N-methylbenzamide hydrochloride] | 0.85 nM
14 | CC(C)C(=O)N(C)C[C@](CCN1CCC2(CC1)c1ccccc1C[S@+]2[O-])(c1ccc(Cl)c(Cl)c1)N(C)C(=O)C(=O)N(C)c1ccccc1 [Compound No. 33, N^1-{1-(N-methylisobutylamide)-2-(S)-(3,4-dichlorophenyl)-4-[spiro(benzo(c)thiophene-(2S)-oxido-1(3H), 41-piperidin)-1′-yl]butan-2-yl}-N^1,N^2-dimethyl-N^2-phenyloxalamide hydrochloride] | 0.65 nM
15 | CCC(=O)N(C)C[C@](CCN1CCC2(CC1)c1ccccc1C[S@+]2[O-])(c1ccc(Cl)c(Cl)c1)N(C)C(=O)C(=O)N(C)c1ccccc1 [Compound No. 35, N^1-{1-(N-methyl-propionamide)-2-(S)-(3,4-dichlorophenyl)-4-[spiro(benzo(c)thiophene-(2S)-oxido-1(3H),4′-piperidin)-1′-yl]butan-2-yl}-N^1,N^2-dimethyl-N^2-phenyloxalamide hydrochloride] | 4.6 nM
16 | CN(C[C@](CCN1CCC2(CC1)NC(=O)Cc1ccccc12)(c1ccc(Cl)c(Cl)c1)N(C)C(=O)C(=O)N(C)c1ccccc1)C(=O)CC(F)(F)F [Compound No. 27, N^1-{1-(3,3,3-trifluoro-N-methylpropanamido)-2-(S)-(3,4-dichlorophenyl)-4-[3-oxo-3,4-dihydro-2H-spiro(isoquinoline-1,4′-piperidin)-1′-yl]butan-2-yl}-N^1,N^2-dimethyl-N^2-phenyloxalamide hydrochloride] | 6.7 nM
17 | CN(C[C@](CCN1CCC2(CC1)c1ccccc1C[S@+]2[O-])(c1ccc(Cl)c(Cl)c1)N(C)C(=O)c1ccccc1F)C(=O)CC(F)(F)F [Compound No. 30, N-{1-(3,3,3-trifluoro-N-methylpropanamido)-2-(S)-(3,4-dichlorophenyl)-4-[spiro(benzo(c)thiophene-(2S)-oxido-1(3H),4′-piperidin)-1′-yl]butan-2-yl}-N-methyl-2-fluorobenzamide hydrochloride] | 1.2 nM
18 | CCN(C(=O)C(=O)N(C)[C@](CCN1CCC2(CC1)NC(=O)Cc1ccccc12)(CN(C)C(=O)C(C)C)c1ccc(Cl)c(Cl)c1)c1ccccc1 [Compound No. 40, N^1-{1-(N-methylisobutylamide)-2-(S)-(3,4-dichlorophenyl)-4-[3-oxo-3,4-dihydro-2H-spiro(isoquinoline-1,4′-piperidin)-1′-yl]butan-2-yl}-N^1-methyl-N^2-ethyl-N^2-phenyloxalamide hydrochloride] | 0.73 nM
19 | CN(C[C@](CCN1CCC2(CC1)NC(=O)Cc1ccccc12)(c1ccc(Cl)c(Cl)c1)N(C)C(=O)c1ccc(C(F)(F)F)cc1)C(=O)C(F)(F)F [Compound No. 24, N-{1-(2,2,2-trifluoro-N-methylacetamide)-2-(S)-(3,4-dichlorophenyl)-4-[3-oxo-3,4-dihydro-2H-spiro(isoquinoline-1,4′-piperidin)-1′-yl]butan-2-yl}-N-methyl-4-trifluoromethyl-benzamide hydrochloride] | 2.9 nM
